Reference: patent US3971757A, “3-Alkyl-4-oxo-imidazolidines and their 1-oxyls” (Ciba-Geigy Corporation, priority 1973, dated 1976)

Legend:
[1] = Solubility in polyethylene sheets (visual examination for undissolved constituents); type: physicochemical; settings: 1 mm sheets; for Solubility 0.1%: 0.1 part in 100 parts polyethylene (density 0.917); for Solubility 0.3%: 0.3 part in 100 parts polyethylene (density 0.917)
Procedure: (§1) 100 Parts of polyethylene having a density of 0.917 are homogeneously mixed in a Brabender plastograph with 0.1 and 0.3 parts, respectively, of a light-stabilising agent of formula I at 180°C for 10 minutes. The resulting mixture is moulded in a platen press at 170°C to give 1 mm thick sheets, and these are then examined visually for undissolved constituents. The sheets are suspended at room temperature and periodically examined for efflorescence phenomena.

[2] = Compatibility with polyethylene sheets (efflorescence at room temperature); type: physicochemical; settings: 1 mm sheets; for Compatibility 0.1% (number of days over which no efflorescence phenomena are detectable): 0.1 part in 100 parts polyethylene; for Compatibility 0.3% (number of days over which no efflorescence phenomena are detectable): 0.3 part in 100 parts polyethylene
Procedure: as §1
*Compatibility: number of days over which no efflorescence phenomena are […]

[3] = Light stabilization of polystyrene sheets, yellowing factor after exposure in Xenotest 150; settings: exposed 2,000 hours in Xenotest 150; 0.25 part per 100 parts polystyrene, 2 mm sheets; no light stabilizer: 20.0
Procedure: 100 parts of polystyrene granules are mixed dry with 0.25 part of a light stabilizer from Table 4 below and the mixture is regranulated in an extruder and subsequently moulded on an injection moulding machine to give 2 mm thick sheets. The sheets obtained are exposed for 2,000 hours in the Xenotest 150 apparatus and their yellowing is determined as follows, from the yellowing factor: [formula] wherein Δ T denotes the loss in transmission at wavelengths 420 and 680 nm respectively, which has occurred during exposure, and T(560) denotes the transmission value in percent of the unexposed sample at 560 nm.

[4] = Light stabilization of polypropylene film, carbonyl (CO) extinction on exposure in Xenotest 150; settings: 0.25 part per 100 parts polypropylene, 0.1 mm film, with 0.2 part antioxidant, no light stabilizer: 0.300 at 1,000 hours
Procedure: 100 parts of polypropylene powder (Moplen, fibre grade, from Messrs. Montedison) are homogenised with 0.2 part of β-(3,5-di-tert-butyl-4-hydroxyphenyl)-propionic acid octadecyl ester as the antioxidant and 0.25 part of a light stabilizer from Table 2 below, for 10 minutes in a Brabender plastograph at 200°C. The mass thus obtained is taken from the kneader as rapidly as possible and is pressed in a toggle press to give 2 - 3 mm thick sheets. A part of the pressed blank obtained is cut out and pressed between two high gloss hard aluminium foils for 6 minutes at 260°C and 12 tons pressure, using a manual hydraulic laboratory press, to give an 0.5 mm thick film which is immediately chilled in cold water. The 0.1 mm thick test film is produced from this 0.5 mm film under exactly the same conditions. Pieces of 60 × 44 mm are now punched from the 0.1 mm thick film and exposed in the Xenotest 150. At regular intervals of time, these test specimens are taken from the light exposure apparatus and examined for their carbonyl content in an IR-spectrophotometer. The increase in the carbonyl extinction during exposure to light is a measure of the photo-oxidative degradation of the polymer [see L. Balaban et al., J. Polymer Sci. Part C, 22, 1059-1071 (1969); J. F. Heacock, J. Polymer Sci. Part A-1, 22, 2921-34 (1969); D. J. Carlsson and DM. Wiles, Macromolecules 2,587-606 (1969)] and is, according to experience, associated with a deterioration of the mechanical properties of the polymer. Thus, for example, the film stabilised with antioxidant only is completely brittle when it reaches a carbonyl extinction of approx. 0.300. The protective action of the light stabilizers according to the invention can be seen from the following Table 3: […]

CCCCCCCCN1C(=O)C2(CCCCC2)NC12CCCCC2 [III]
Solubility 0.1% [1]: dissolv.
Solubility 0.3% [1]: dissolv.
Compatibility 0.1% (number of days over which no efflorescence phenomena are detectable) [2]: 200 days
Compatibility 0.3% (number of days over which no efflorescence phenomena are detectable) [2]: 200 days

O=C1N(Cc2ccccc2)C2(CCCCC2)NC12CCCCC2 [I]
Y.F. (yellowing factor) [3]: 4.5
CO extinction (5.85 μ) ([4]; exposure time 6,000 hours): 0.010

C=CCN1C(=O)C2(CCCCC2)NC12CCCCC2 [II]
Solubility 0.1% [1]: dissolv.
Solubility 0.3% [1]: dissolv.
Compatibility 0.1% (number of days over which no efflorescence phenomena are detectable) [2]: 200 days
Compatibility 0.3% (number of days over which no efflorescence phenomena are detectable) [2]: 200 days

CCCCCCCCCCCCCCCCCCN1C(=O)C2(CCCCC2)NC12CCCCC2 [IV]
Solubility 0.1% [1]: dissolv.
Solubility 0.3% [1]: dissolv.
Compatibility 0.1% (number of days over which no efflorescence phenomena are detectable) [2]: 200 days
Compatibility 0.3% (number of days over which no efflorescence phenomena are detectable) [2]: 200 days

O=C(CN1C(=O)C2(CCCCC2)NC12CCCCC2)OCC(COC(=O)CN1C(=O)C2(CCCCC2)NC12CCCCC2)(COC(=O)CN1C(=O)C2(CCCCC2)NC12CCCCC2)COC(=O)CN1C(=O)C2(CCCCC2)NC12CCCCC2 [XI]
CO extinction (5.85 μ) ([4]; exposure time 5,000 hours): 0.010

CCCCCCCCOC(=O)CN1C(=O)C2(CCCCC2)NC12CCCCC2 [VIII]
Solubility 0.1% [1]: dissolv.
Solubility 0.3% [1]: dissolv.
Compatibility 0.1% (number of days over which no efflorescence phenomena are detectable) [2]: 200 days
Compatibility 0.3% (number of days over which no efflorescence phenomena are detectable) [2]: 200 days

O=C1N(CCCCN2C(=O)C3(CCCCC3)NC23CCCCC3)C2(CCCCC2)NC12CCCCC2 [VI]
Y.F. (yellowing factor) [3]: 5.5
CO extinction (5.85 μ) ([4]; exposure time 6,000 hours): 0.010
